Consider one compound from patent US20050148034A1, “Methods for identification of modulators of angiogenesis, compounds discovered thereby, and methods of treatment using the compounds” (priority 2002, published 2005).

The test system of this data set is human umbilical cord vessel rings. Nature of the data set: Human angiogenesis assay (umbilical artery vessel rings in Matrigel). Type of data set: cell-based. Particulars: for Microvessel Growth (% Inhibition): vs 0.1% DMSO, three weeks, average of two rings. An excerpt: Fresh human umbilical cords were collected by trained medical personnel under fill donor informed consent from local hospitals. The cords were transported and treated within three hours. Umbilical cords and vessel lumens were rinsed with chilled basal nutrient medium. The artery was removed from the cord using mechanical means, forceps and small surgical scissors in an aseptic field. The vessel was cleaned of connective tissue and vessel rings were cut cross-wise in a length of 1 mm. The rings were placed into EGM-2 medium (Clonetics Corp.) in a 50 ml conical bottom tube and stored at 4° C. Six-well tissue culture plates were covered with […] of Matrigel and allowed to gel for 30-45 min at 37° C., under 5% CO2. The vessel rings were rinsed in EGM-2 medium and placed on the Matrigel-coated wells, covered with additional 250 μl Matrigel, and allowed to gel for 30-45 min at 37° C. (see FIG. 6). The vessels were cultured for 24 hours in 4 ml of EGM-2 to allow the tissue to adapt to its new environment. After 24 hours incubation, the rings were treated either with 0.1% DMSO as control, or different concentrations of compounds (thalidomide or CC4047). Culture medium was changed twice per week for total of three weeks.
The effects of compounds on cultured vessel rings were compared with the effect of DMSO on vessel rings. The results were analyzed using Image-Pro® Plus software (MediaCybernetics, Inc. Carlsbad, Calif.).
These experiments were done in duplicates and the results are the average of two rings in same experiment. A different concentration of Fumagillin is used as positive control in this experiment.

SMILES strings stand for the structures.

`O=C1CCC(N2C(=O)c3ccccc3C2=O)C(=O)N1` (centres unmarked) [Thalomid, thalidomide, reference compound]: the “Microvessel Growth (% Inhibition)” value is, setting by setting: (0..1 μM) 40 % Inhibition; (1 μM) 81.4 % Inhibition; (10 μM) 100 % Inhibition. Moreover, the “formation of microvessel outgrowth” value (compared with DMSO treated samples) is “inhibited the formation of microvessel outgrowth in a dose dependent manner”. In addition, the “need of microsomes for activity” value (human ring assay, compared with rat ring results) is on record as “no need for either human or rabbit microsome”.
